For data set [1] the following is noted: 100 kPa, Liquid, Vibrating tube method.
Data set [2] in a line: xn = mol fraction of the nth substance listed. To be noted: 100 kPa, Liquid, Vibrating tube method, x2 = 0.333.

± gives the expanded uncertainty stated by the source.

Broadly, the mass density is the mass of a sample divided by its volume. On to `CCO` [ethanol], for which the mass density in data set [1] (293.15 K) was found to be 790.6 ± 1 kg/m3; in data set [1] (303.15 K) it was 781.9 ± 1 kg/m3; in data set [1] (313.15 K), 773.3 ± 1 kg/m3; in data set [1] (323.15 K), 764.4 ± 1 kg/m3; in data set [1] (333.15 K), 755.1 ± 1 kg/m3.
In the case of `NC(N)=O` [urea] + C[N+](C)(C)CCO.[Cl-], the mass density turned out to be 1199.7 ± 1.1 kg/m3 in data set [2] (293.15 K); 1194.2 ± 1.1 kg/m3 in data set [2] (303.15 K); 1188.6 ± 1.1 kg/m3 in data set [2] (313.15 K); 1183.2 ± 1.1 kg/m3 in data set [2] (323.15 K); 1178 ± 1.1 kg/m3 in data set [2] (333.15 K).
